What was measured:
[1] = test system: Swiss albino mice; experiment: Dose-response study: locomotor activity in the open field; type: in vivo; conditions: 7 days repeated, tested 8th day, tracked 60 min, vs vehicle
Description: The effect of CBD, KML29, and JZL184 on locomotor activity in the open field experiment was evaluated using Swiss albino mice.
A total of 88 male Swiss albino mice (˜30-45 g; 7-9 weeks old) were selected and body weights were recorded. Animals were administered respective treatments (n=8) as per the group allocation repeatedly for 7 days. On the day of testing (8th day), animals were brought to the laboratory 1 h prior to acclimatize to the laboratory conditions. Mice were habituated to the arenas for a period of 30 min. Respective treatments were intraperitoneally administered (vehicle (10 mL/kg) or Diazepam (1 mg/kg) or CBD (1, 10 and 100 mg/kg) or KML29 (3, 10 and 30 mg/kg) or JZL184 (3, 10 and 30 mg/kg)) immediately post habituation. After treatment animals were placed in the open field and distance traveled by mice was tracked for 60 min. Data obtained was analyzed by Student's ‘t’-test or Two-way repeated measures ANOVA followed by Bonferroni's posthoc tests by using the Graph pad prism software package (Version 7.0) and a p-value below 0.05 was considered as significant.

[2] = test system: human subjects; conditions: human subjects submitted to SPST; cited from earlier work
[3] = test system: healthy volunteers; conditions: chronic administration, even large acute doses of 700 mg/day; cited from earlier work
[4] = test system: Swiss albino mice; experiment: Anxiolytic effects of formulation: locomotor activity in open field, combinations vs diazepam; type: in vivo; conditions: 1 mg/kg, i.p.; tested 8th day, tracked 60 min; vs vehicle
Description: The effect of CBD, KML29, and JZL184 on locomotor activity in open field was evaluated using Swiss albino mice and compared with diazepam.
A total of 48 male Swiss albino mice (˜30-45 g; 7-9 weeks old) were selected and body weights were recorded. Animals were brought to the laboratory 1 h prior to acclimatize to the laboratory conditions. The open field is a black colored arena of 51×51×51 cm enclosed by black plastic walls of same dimensions. Animals were given respective intraperitoneal treatments as per the group allocation (n=8) repeatedly for 7 days. On the day of testing (8th day), mice were habituated to the arenas for a period of 30 min. […] Data obtained was analyzed by Student's ‘t’-test or Two-way repeated measures ANOVA followed by Bonferroni's posthoc tests by using the GraphPad prism software package (Version 7.02) and p-value below 0.05 was considered as significant.
Preparation of formulations: Diazepam was dissolved with sufficient volume of 5% pharmasolve and 95% of 30% w/v captisol to get the concentration of 0.10 mg/mL and was intended for intraperitoneal administration of 1 mg/kg dose at 10 mL/kg dose volume. CBD was dissolved in a calculated volume of DMSO to get the concentration of 20 mg/mL (Stock solution). […] KML29 was dissolved in a calculated volume of DMSO to get the concentration of 50 mg/mL (Stock solution). […]

**Q.** Which “locomotion (distance traveled in open field)” value (from here on “locomotion”) ([1]; 30 mg/kg, i.p.) does the source give for `O=C(N1CCC(=C2c3ccc(Cl)cc3CCc3cccnc32)CC1)n1cncn1` [KML29, [4-(8-Chloro-5,6-dihydro-11H-benzo[5,6]cyclohepta[1,2-b]pyridin-11-ylidene)-1-piperidinyl](1H-1,2,4-triazol-1-yl)methanone] here?
**A.** The value was “decreased the locomotion and attained significance”.

**Q.** Which anxiolytic effect [2] does the source give for `C=C(C)[C@@H]1CCC(C)=C[C@H]1c1c(O)cc(CCCCC)cc1O` [CBD, cannabidiol] here?
**A.** Its anxiolytic effect is “anxiolytic effects”.

**Q.** And the “toxicity or serious side effects” value [3]?
**A.** The value was “No signs of toxicity or serious side effects”.

**Q.** And the “locomotion” value ([1]; 100 mg/kg, i.p.)?
**A.** Its value is “significantly decreased the locomotion”.

**Q.** Which results are given for `CN1C(=O)CN=C(c2ccccc2)c2cc(Cl)ccc21` [Diazepam, diazepam]?
**A.** locomotion (distance traveled in open field) [4]: significantly decreased the locomotion; locomotion (distance traveled in open field) ([1]; 1 mg/kg, i.p.): significantly decreased the locomotion

**Q.** With `O=C(Oc1ccc([N+](=O)[O-])cc1)N1CCC(C(O)(c2ccc3c(c2)OCO3)c2ccc3c(c2)OCO3)CC1` [JZL184, 4-nitrophenyl-4-[bis(1,3-benzodioxol-5yl)(hydroxy)methyl]piperidine-1-carboxylate] as the molecule, how does the “locomotion” value ([1]; 3, 10 and 30 mg/kg i.p.) read?
**A.** Its value is “decreased the locomotion in a dose-dependent manner but the effect did not reach statistical significance”.
